Consider one molecule from US9220682B2, “Nanocarrier therapy for treating invasive tumors” (Emory University, priority 2009, dated 2015).

Data set [1] relates to RT2 rat astrocytoma cell line. Put plainly: Boyden chamber invasion assay at 48 hours. The conditions noted are these: RT2 cells, 0.01-5 μg/ml. The class given is cell-based. As for the experimental part: FIG. 1b is a bar graph showing the dose dependent effects of IB on invasion using a Boyden Chamber Assay. […] At concentrations above 20 μg/ml, IB was cytotoxic to cancer, and not just anti-invasive.
(§1) An aggressive rat astrocytoma cell line, RT2, was maintained in vitro. This cell line was used to test 24 compounds at varying concentrations in cytotoxicity and proliferation assays using CCK8 (Dojindo), a tetrazolium salt based assay. Compounds without detrimental effects on viability and growth were tested using the Boyden chamber invasion assay at 48 hours. Compounds were also tested for viability against astrocyte cultures using CCK8. Of these compounds, several were identified as anti-invasive. However, several compounds were toxic to astrocytes in culture and several were cytotoxic and not in fact anti-invasive.
It also is benign to astrocyte co-culture making it safer for delivery to the brain (FIG. 3a). The compound is blue in color with an absorbance at 610 nm making it easily assayable. […] At concentrations above 20 μg/ml, IB was cytotoxic to cancer and not just anti-invasive.

Data set [2] in a line: Plasma clearance of free IB versus Nano-IB (Example 6). Type of data set: in vivo, rat. The conditions noted are these: non tumor-bearing adult male rats, tail vein, readings over 1 hour.
Method: Imipramine Blue liposomes were injected via the tail vein into adult male rats (non tumor-bearing). Blood samples were taken via the orbital cavity at different time points after drug administration, plasma separated and analyzed for IB content via absorbance readings on spectrophotometer.
The nature of data set [3]: Pharmacokinetics of free versus liposomal IB (Example 3). The class given is in vivo. The conditions noted are these: rat, tail vein, 20 mg/kg, Cremaphor formulation. As for the experimental part:
FIG. 5 is a chart showing the pharmacokinetics of free versus encapsulated imipramine blue, in terms of plasma concentration (mg/ml) over time (hours).
Animals were injected via tail vein with 20 mg/kg liposomal or free IB. Orbital blood draws were performed at intervals and blood collected, centrifuged, and serum read at 610 nm absorbance for pharmacokinetics. […] For biodistribution, animals were perfused with saline, organs collected, homogenized, and drug extracted with DMSO and read at 610 nm absorbance.
The circulation time of the free imipramine blue was tested in a Cremaphor formulation similar to that of paclitaxel.

The test system of data set [4] is RT2 rat astrocytoma cell line. Put plainly: Cytotoxicity and proliferation assays using CCK8. The class given is cell-based. As for the experimental part: (§2) FIG. 1a is a bar graph showing the effects of IB on cell growth in vitro, in terms of normalized cell viability.
as §1

The test system of a further data set is HIF2a. The conditions noted are these: WM35 PKB cells, 5 micromolar, 24 hours; cited from earlier work.
The next data set has as its system astrocytes. Put plainly: Viability against astrocyte cultures using CCK8. Type of data set: cell-based. The conditions noted are these: CCK8, 5 μg/ml. As for the experimental part:
as §2, §1

The subject of another data set is RT2 glioma cells. Put plainly: Actin staining of IB-treated glioma cells. The conditions noted are these: 24 hours, versus ethanol. The class given is cell-based, rat. As to the method: FIGS. 9A and 9B are photomicrographs showing the results of in vitro treatment of RT2 glioma cells with IB. Cells were treated with ethanol […] or IB […] and stained for actin (red) and nuclei (blue).
The ability of IB to impact invasion capability of glioma cells was tested further in vitro. Cells were treated for 24 hours with either IB dissolved in ethanol or an equivalent volume of ethanol.

For another data set, the system named is glioma cells. Put plainly: Invasion assay at 24 hours, encapsulated versus free drug. Type of data set: cell-based. As for the experimental part:
FIG. 4 is a chart showing the results of an invasion assay at 24 hours, showing invasion (%) over time (24 hours).
An invasion assay was performed at 24 hours. The encapsulated formulation was compared to tree drug in vitro and was still active as an anti-invasive agent. Encapsulation of the compound in liposomes is reproducible and consistent between batched.

Entries after “also recorded” stand apart in the source; their conditions may differ.

With `CCN(CC)c1ccc(C(c2ccc(N(CC)CC)cc2)=c2ccc3c(c2)CCc2ccccc2[N+]=3CCCN(C)C)cc1` [IB, Imipramine Blue], in data set [1], the anti-invasive effect result is given as “highest anti-invasive properties; also recorded: dose-dependent anti-invasive response”. The “half-life of free IB” value was 12 min in data set [2], 11 min in data set [3] and “around 11 minutes” in data set [3] (listed as free imipramine blue). Further, in data set [4], the “concentration at which IB is cytotoxic to cancer” value is listed as “above 20 μg/ml”. Further, in data set [4] (CCK8), the “proliferation of RT2 cells” value was “not antiproliferative; also recorded: not particularly cytotoxic or anti-proliferative”. The “cytotoxicity to RT2 cells” value in data set [4] (CCK8, at anti-invasive concentrations) is recorded as “not particularly cytotoxic”. The “inhibition of HIF2a expression” value with HIF2a was “around 90%”. Also, in the data set on astrocytes, the “effect on astrocyte culture” value is recorded as “benign”. The effect on cytoskeleton result in the data set on RT2 glioma cells is listed as “alters the arrangement of the cytoskeleton”. Moreover, the “invasion relative to control (100 percent)” value with glioma cells was “around 60%”.
